Each structure is given as a SMILES string.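 The compound was tested at five concentrations on cells cultured in 96-well plates, with a 48-hour exposure period. The concentration for full growth arrest is given as TGI.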 A value given as a limit tells only on which side of the number the result lay.

One assay concerns OVCAR-4 ovarian. Put plainly: NCI tumour cell line growth inhibition, 48 h.
`O=c1[nH]c2cc([N+](=O)[O-])ccc2nc1/C(=N/Nc1ccccc1)C(O)c1ccccc1Cl` (configuration not stated): the TGI was above 100 µM.
Same read-out and setting: the value for `C=Cc1ccc(C)[n+](C[Si](C)(C)O[Si](C)(C)C)c1` was above 100 µM; that for `C[C@]12CCC(=O)C=C1CC[C@@H]1[C@@H]2CC[C@]2(C)C(=O)NC(=O)C[C@@H]12` was above 100 µM.
`COc1cc2c(oc(=O)c3c4oc([Si](C)(C)C)cc4cc(OC)c23)c2cccc(OCc3ccccc3)c12` registered a TGI above 88.5 µM.
Take `O=C(c1cccs1)N(C(=S)N1CCN(c2ccccn2)CC1)c1ccccc1`: the TGI is above 100 µM.
The same measure, in the same setting: then `CNS(=O)(=O)NN(C)S(=O)(=O)c1ccccc1`, with above 100 µM; and `CC(=O)OCC1=C(CCC#N)N2C(=O)C(NC(=O)Cc3cccs3)C2S(=O)C1` (configuration not stated), with above 100 µM; and `CCCCNc1nc(C#N)c(N)s1`, with above 100 µM.
Still for that read-out and setting: then `Cn1cc2ccccc2c1-c1nc(F)nc(F)n1`, with above 100 µM; and `C[N+](C)(C)CC(=O)N/N=C/c1oc(-c2c(O)ccc3ccccc23)c(-c2c(O)ccc3ccccc23)c1[N+](=O)[O-]`, with 80.8 µM.
Still for that read-out and setting: the value for `C/C(CC(=O)Nc1ccc([N+](=O)[O-])cc1)=N\NC(N)=O` was above 100 µM; that for `CCCCOC(=O)C1C2CCC(O2)C1C(=O)OCCCC` (configuration not stated) was above 100 µM.
Molecule `O=C(CSc1nnc(-c2ccc(N=Cc3ccc(Cl)cc3)cc2)o1)Nc1ccccc1[N+](=O)[O-]` came in with a TGI above 100 µM.

Another assay relates to ACHN renal. Put plainly: NCI tumour cell line growth inhibition, 48 h.
In turn, `O=c1[nH]c2cc([N+](=O)[O-])ccc2nc1/C(=N/Nc1ccccc1)C(O)c1ccccc1Cl` (configuration not stated) came in with a TGI above 100 µM.
Take `C=Cc1ccc(C)[n+](C[Si](C)(C)O[Si](C)(C)C)c1`: the TGI is above 100 µM.
`C[C@]12CCC(=O)C=C1CC[C@@H]1[C@@H]2CC[C@]2(C)C(=O)NC(=O)C[C@@H]12` displayed a TGI above 100 µM.
Same read-out and setting: the value for `COc1cc2c(oc(=O)c3c4oc([Si](C)(C)C)cc4cc(OC)c23)c2cccc(OCc3ccccc3)c12` was above 100 µM; that for `O=C(c1cccs1)N(C(=S)N1CCN(c2ccccn2)CC1)c1ccccc1` was above 100 µM; that for `CNS(=O)(=O)NN(C)S(=O)(=O)c1ccccc1` was above 100 µM.
The molecule `CC(=O)OCC1=C(CCC#N)N2C(=O)C(NC(=O)Cc3cccs3)C2S(=O)C1` (configuration not stated) came in with a TGI above 100 µM.
Regarding `CCCCNc1nc(C#N)c(N)s1`, the TGI is above 100 µM.
Molecule `Cn1cc2ccccc2c1-c1nc(F)nc(F)n1` came in with a TGI above 100 µM.
The molecule `COC(=O)N/N=C(\Cc1ccccc1)CN(C)C` displayed a TGI above 100 µM.
`COc1ccc2c3c1O[C@]1(C)C34CCN(C)C(C2)C42C=C[C@@]1(OC)c1c(O)ccc(O)c12` registered a TGI above 100 µM.
In turn, `C[N+](C)(C)CC(=O)N/N=C/c1oc(-c2c(O)ccc3ccccc23)c(-c2c(O)ccc3ccccc23)c1[N+](=O)[O-]` returned a TGI of 32.5 µM.
The molecule `C/C(CC(=O)Nc1ccc([N+](=O)[O-])cc1)=N\NC(N)=O` displayed a TGI above 100 µM.
Consider `CCCCOC(=O)C1C2CCC(O2)C1C(=O)OCCCC` (configuration not stated), for which the TGI is above 100 µM.
Regarding `O=C(CSc1nnc(-c2ccc(N=Cc3ccc(Cl)cc3)cc2)o1)Nc1ccccc1[N+](=O)[O-]`, the TGI was above 100 µM.

The subject of a further assay is SR leukemia. The experiment in a line: NCI tumour cell line growth inhibition, 48 h.
The molecule `C=Cc1ccc(C)[n+](C[Si](C)(C)O[Si](C)(C)C)c1` returned a TGI above 100 µM.
Molecule `C[C@]12CCC(=O)C=C1CC[C@@H]1[C@@H]2CC[C@]2(C)C(=O)NC(=O)C[C@@H]12` showed a TGI above 100 µM.
The molecule `COc1cc2c(oc(=O)c3c4oc([Si](C)(C)C)cc4cc(OC)c23)c2cccc(OCc3ccccc3)c12` showed a TGI above 100 µM.
Take `O=C(c1cccs1)N(C(=S)N1CCN(c2ccccn2)CC1)c1ccccc1`: the TGI is above 100 µM.
`CNS(=O)(=O)NN(C)S(=O)(=O)c1ccccc1` gave a TGI above 100 µM.
Turning to `CC(=O)OCC1=C(CCC#N)N2C(=O)C(NC(=O)Cc3cccs3)C2S(=O)C1` (configuration not stated), the TGI was above 100 µM.
Consider `CCCCNc1nc(C#N)c(N)s1`, for which the TGI was above 100 µM.
`Cn1cc2ccccc2c1-c1nc(F)nc(F)n1` returned a TGI above 100 µM.
In turn, `C[N+](C)(C)CC(=O)N/N=C/c1oc(-c2c(O)ccc3ccccc23)c(-c2c(O)ccc3ccccc23)c1[N+](=O)[O-]` displayed a TGI of 58.3 µM.
Still for that read-out and setting: then `C/C(CC(=O)Nc1ccc([N+](=O)[O-])cc1)=N\NC(N)=O`, with 45.8 µM; and `O=C(CSc1nnc(-c2ccc(N=Cc3ccc(Cl)cc3)cc2)o1)Nc1ccccc1[N+](=O)[O-]`, with above 100 µM.

A further assay deals with SN12C renal. Put plainly: NCI tumour cell line growth inhibition, 48 h.
`O=c1[nH]c2cc([N+](=O)[O-])ccc2nc1/C(=N/Nc1ccccc1)C(O)c1ccccc1Cl` (configuration not stated): the TGI was above 100 µM.
The molecule `C=Cc1ccc(C)[n+](C[Si](C)(C)O[Si](C)(C)C)c1` had a TGI above 100 µM.
Same read-out and setting: then `C[C@]12CCC(=O)C=C1CC[C@@H]1[C@@H]2CC[C@]2(C)C(=O)NC(=O)C[C@@H]12`, with above 100 µM; and `COc1cc2c(oc(=O)c3c4oc([Si](C)(C)C)cc4cc(OC)c23)c2cccc(OCc3ccccc3)c12`, with above 100 µM; and `O=C(c1cccs1)N(C(=S)N1CCN(c2ccccn2)CC1)c1ccccc1`, with above 100 µM.
`CNS(=O)(=O)NN(C)S(=O)(=O)c1ccccc1` displayed a TGI above 100 µM.
The molecule `CC(=O)OCC1=C(CCC#N)N2C(=O)C(NC(=O)Cc3cccs3)C2S(=O)C1` (configuration not stated) gave a TGI above 100 µM.
In the case of `CCCCNc1nc(C#N)c(N)s1`, the TGI was above 100 µM.
With `Cn1cc2ccccc2c1-c1nc(F)nc(F)n1`, the TGI was above 100 µM.
On to `C[N+](C)(C)CC(=O)N/N=C/c1oc(-c2c(O)ccc3ccccc23)c(-c2c(O)ccc3ccccc23)c1[N+](=O)[O-]`, for which the TGI was determined as 92.7 µM.
`C/C(CC(=O)Nc1ccc([N+](=O)[O-])cc1)=N\NC(N)=O` yielded a TGI above 100 µM.
For the molecule `CCCCOC(=O)C1C2CCC(O2)C1C(=O)OCCCC` (configuration not stated), the TGI was above 100 µM.
Regarding `O=C(CSc1nnc(-c2ccc(N=Cc3ccc(Cl)cc3)cc2)o1)Nc1ccccc1[N+](=O)[O-]`, the TGI is above 100 µM.

The values above are taken from PubChem BioAssay (NCI).
